Key:
HT-29 cells [1] = experiment: Apoptosis by DNA fragmentation assay in HT-29 cells; format: cell-based, human; details: apoptosis inducing activity
HT-29 cells [2] = experiment: Cyclic nucleotide (cGMP, cAMP) levels in HT-29 cells by radioimmunoassay; format: cell-based, human; details: HT-29 cells treated for 30 minutes
Description: The amount of PDE activity can be determined by assaying for the amount of cyclic GMP in the extract of treated cells using a radioimmunoassay (RIA). In this procedure, a neoplastic cell line is incubated with a test compound. […]
It has been observed that a compound which is useful in the practice of this invention (i.e., one that selectively induces apoptosis in neoplastic cells, but not substantially in normal cells) follows a time course consistent with cGMP-specific PDE inhibition. […] The intracellular targets of these drug actions are being studied further, but current data support the concept that the initial rise in cGMP content and the subsequent fall in cAMP content precede apoptosis in neoplastic cells exposed to test compounds useful in this invention. To determine the cyclic AMP content in cell extracts, radioimmunoassay techniques similar to those described above for cGMP are used.

HT-29 cells [3] = experiment: Apoptosis and necrosis by morphology (acridine orange / ethidium bromide) in HT-29 cells; format: cell-based, human; details: 120 μM
Description: Treatment of cells with test compounds involves either pre- or post-confluent cultures and treatment for two to seven days at various concentrations of the compound in question. Apoptotic cells are measured by combining both the attached and “floating” compartments of the cultures. The protocol for treating tumor cell cultures with sulindac and related compounds to obtain a significant amount of apoptosis has been described in the literature. (See, Piazza, G. A., et al., Cancer Research, 55:3110-16, 1995, which is incorporated herein by reference). The novel features include collecting both floating and attached cells, identification of the optimal treatment times and dose range for observing apoptosis, and identification of optimal cell culture conditions. […]
Reference compounds and test compounds were analyzed for their cGMP-specific PDE inhibitory activity in accordance with the protocols for the assay, supra. […] Apoptotic and necrotic cell death was determined as previously described (Duke and Cohen, In: Current Protocols in Immunology, 3.17.1-3.17.16, New York, John Wiley and Sons, 1992). […]
The apoptosis inducing activity for a series of phosphodiesterase inhibitors was determined. […] Apoptosis and necrosis were determined morphologically after acridine orange and ethidium bromide labeling in accordance with the assay described, supra.

HT-29 cells [4] = experiment: Tumor cell growth inhibition in HT-29 cells; format: cell-based, human; details: 120 μM, viable cell count after trypan blue staining
[5] = Side effects of exisulind on administration; format: in vivo; details: doses higher than the recommended therapeutic levels; reversible
Description: This effect is reversible, and liver enzymes return to normal levels when the administered dose of exisulind returns to the traditionally recommended level or when treatment is discontinued. The most serious side effects of anthracycline antibiotics, on the other hand, is their myocardial toxicity and their myelosuppressive activity.

Row | Structure (SMILES) | Fold induction at 100 μM (HT-29 cells [1]) [fold] | effect on levels of cAMP (HT-29 cells [2]) | further results
1 | CCN(CC)CCSC12CC(=O)OC1(C)/C(=C/c1ccc(S(C)(=O)=O)cc1)c1ccc(F)cc12 (racemic) [A, rac-threo-(E)-1-(N,N′-diethylaminoethanethio)-1-(butan-1′,4′-olido)-[3′,4′:1,2]-6-fluoro-2-methyl-3-(p-methylsulfonylbenzylidene)-indan] | <2.0 | – | –
2 | CSc1ccc(/C=C2/C(C)=C(CC(=O)O)c3cc(F)ccc32)cc1 [Sulindac sulfide] | – | unaffected | apoptosis, time course (HT-29 cells [3]): increase in apoptosis; growth inhibition, time course (HT-29 cells [4]): capable of inhibiting tumor cell growth
3 | CC1=C(CC(=O)O)c2cc(F)ccc2/C1=C\c1ccc(S(C)(=O)=O)cc1 [Exisulind, (Z)-5-fluoro-2-methyl-1-[[4-(methylsulfonyl)phenyl]methylene]indene-3-yl acetic acid] | – | – | side effects at doses higher than recommended [5]: elevated levels of liver enzymes
4 | COc1ccc(C2CNC(=O)C2)cc1OC1CCCC1 (stereo not shown) [Rolipram] | – | increased cAMP levels | –
5 | CCCCCC[C@@H]([C@@H](C)O)n1cnc2c(N)ncnc21 (racemic) [EHNA] | <2.0 | – | –

Reference: US20030130210A1, “Method for treating a patient with neoplasia by treatment with an anthracycline antibiotic” (priority 1998, published 2003)
